The values that follow come from patent US8946249B2, “Compound, certain novel forms thereof, pharmaceutical compositions thereof and methods for preparation and use” (Hutchinson Medipharma Limited, priority 2009, dated 2015).

Data set [1] has as its target T1, recombinant human KDR catalytic domain (Homo sapiens, UniProt P35968).
T1 construct: 300 ng/mL of recombinant human KDR catalytic domain
As to the kind of experiment: KDR kinase inhibition, Z'-LYTE assay kit. Conditions: 10 μM ATP, 1 μM Tyr1 peptide, 25° C., 1 hour. It counts as biochemical. The method, then: The KDR kinase inhibition activity of the above three compounds is tested using the Z-Lyte assay kit.
Z′-LYTE™ Tyr1 peptide (Invitrogen, Cat. PV3190) is used to test the KDR kinase inhibitory activity of the above three compounds. The testing system contains 300 ng/mL of recombinant human KDR catalytic domain, 10 μM of ATP, 1 μM of substrate peptide, and a test compound at a series of different concentrations in 384-well plate (Thermo Labsystems, Cat. 7805); total volume is 10 μL. The enzymatic inhibition proceeds at room temperature (25° C.) for 1 hour on the shaker, followed by addition of 5 μL of enhancer and incubation for an additional 1 hour at room temperature on the shaker. 5 μL of stop solution is added to stop the reaction. The KDR kinase inhibition activity of a test compound is calculated based on the method recommended by the manufacturer. The IC50 values of the KDR kinase inhibition activity are calculated using XLfit software.
(1) Dilution of the test compounds: each of the above three compounds is dissolved in DMSO to prepare a […] stock solution and stored in −20° C. freezer. The stock solution is diluted to the four times concentration of the desired test concentration with 8% DMSO before use. […]
(7) Kinase inhibition: Add the following components in turn in a 384-well plate. […] Seal the plate with aluminum foil and allow the reaction to proceed at room temperature (25° C.) for 1 hour on the shaker (250 rpm). • e) Dilution of enhancer solution (right before use): according to the recommendation of manufacturer, dilute enhancer stock with development dilution buffer 128-fold. • f) Fluorescence enhancement: add 5 μL/well of the diluted enhancer solution in all wells, briefly spin at 1000 rpm, re-seal the plate and let the reaction proceed at room temperature for an additional hour on the shaker. • g) Add 5 μL/well of stop solution to all wells, briefly spin at 1000 rpm. Mix at room temperature for 2 minutes on the shaker, and read florescence signals on Victor3 (Perkin Elmer) at excitation 400 nm, emission 445 nm/530 nm. […]

Data set [2] deals with T2, hERG channels (Homo sapiens, UniProt Q12809).
T2 construct: expressed in transfected cells; host or cells: CHO
Kind of data set: hERG whole-cell patch clamp in CHO cells stably transfected with hERG cDNA. It counts as cell-based. Conditions: CHO cells expressing hERG, tail current; read-out: hERG current inhibition IC50. The method, then: A CHO cell line stably transfected with hERG cDNA and expressing hERG channels was used for the study. Cells were cultured in a medium comprising:
Before testing, cells were harvested using an Accumax (Innovative Cell Technologies).
Whole-cell recording was performed using a 700B (Axon Instruments). The cells were voltage clamped at a holding potential of −80 mV. The hERG current was activated by depolarizing at +20 mV for 2 sec, after which the current was taken back to −50 mV for 2 sec to remove the inactivation and observe the deactivating tail current. The first step at −50 mV was used as a baseline for measuring the tail current peak amplitude.
Test compound was prepared as a 10 mM DMSO stock solution in a glass vial. The stock solution was mixed vigorously for 10 minute at room temperature. The stock solution was diluted in a glass vial using External Solution; the dilution was prepared no longer than 30 minutes before use. Equal amounts of DMSO (0.1%) were present at final dilution.
After achieving whole-cell configuration, the cells were monitored for 90 sec to assess stability and washed with external solution for 66 sec. The voltage protocol described above was then applied to the cells every 20 sec throughout the whole procedure. […]
Data were analyzed using Clampfit (both by Axon Instruments) and Origin 7 (Originlab Corporation).
A general note: hERG is a cardiac potassium channel; its block is linked to QT prolongation.

A short description of data set [3]: Pharmacokinetics study in mice. It counts as in vivo. Conditions: male, ICR; mouse plasma, single oral dose 10 mg/kg. Here is the method: Experimental Method: The pharmacokinetics of the test compounds were studied with male ICR mice (n=6 for each group, weight 20˜30 g) after a single intraveneous (i.v.) and oral (p.o.) dosing at 2.5 and 10 mg/kg, respectively. For i.v. dosing formulation, the test compound was dissolved in DMSO (0.25%)-solutol (10%)-ethanol (10%)-physiological saline (79.75%) at the concentration of 0.25 mg/mL. And the p.o. dosing formulation (1 mg/mL) was prepared with 0.5% CMC-Na. After i.v. or p.o. dosing, blood samples were collected via the ophthalmic vein at 0 (pre-dose), 5, 15, 30 min and 1, 1.5, 2, 4, 8, 24 h, anti-coagulated with heparin-Na. After centrifugation, plasma samples were separated and protein precipitated with acetonitrile (containing internal standard). The concentration of the testing compounds in these plasma samples were then determined by LC/MS/MS.

The nature of data set [4]: Hygroscopicity, saturated salt solution method. The conditions noted are these: 10 days, 25° C.; for Stability under the testing humidity conditions: crystalline form unchanged; for Hygroscopicity (in words): saturated NaCl solution. It counts as physicochemical. The method, then: The desiccator was closed and left standing for 10 days at 25° C. Then the samples were taken out and weighed again, and the weight gain was calculated.

Data set [5] can be described thus: Thermodynamic stability comparison, slurry of Form I and Form II mixture. The data set is classed as physicochemical. Conditions: 1 g each of Form I and Form II in 10 mL methanol, 60° C., 20 h, powder X-ray diffraction. The text has this:
Then the suspension was filtered with a Buchner funnel and paper disk, and dried under a vacuum oven.

Data set [6] has as its target T3, FGFR1 kinase (Homo sapiens, UniProt P11362).
T3 construct: purchased Invitrogen PV3146
As to the kind of experiment: FGFR1 kinase activity assay, Transcreener FP. The data set is classed as biochemical. Conditions: 10 μM ATP, 60 minutes, room temperature. Here is the method: The Transcreener FP technology of Bellbrook Labs is used in the FGFR1 kinase activity assay. The kinase reaction was done in 96-well half area black plate (Greiner, Cat. 675076). In each well, were added 5 μL of test compounds in 5% DMSO, 10 μL of 0.3 ng/μL FGFR1 kinase (Invitrogen, PV3146) diluted in assay buffer. The reaction was started by the addition of 10 of 62.5 ng/μL poly (Glu:Tyr, 4:1) substrate (Sigma, P0275) and 25 μmol/L of ATP mixture, and incubated for 60 minutes at room temperature. The final conditions for kinase assay were: 10 μM of ATP, 0.12 ng/μL of FGFR1 kinase, 25 ng/μL of substrate, 53.6 mmol/L of HEPES (pH 7.5), 21.6 mmol/L of MgCl2, 0.536 mmol/L of MnCl2, 1 mmol/L of DTT and 0.01% Triton X-100, 1% DMSO.
At the same time, an ADP standard curve was performed. The standard curve mimics a kinase reaction in the absence of test compound, kinase, and lipid substrate. The standard curve contained 12 concentration points, and total [ATP+ADP] ranged from 10 μM to 0.01 μM. […]
After reacting for 60 minutes at room temperature, 25 μL of transcreener Kinase Kit reagent—ADP Detection Mix—(Bellbrook Labs) was added and reacted for an additional 1.0 hours. The plates were then read in Tecan Infinite F500 at an excitation of 610 nm and an emission of 670 nm. […] The inhibition of test compound on ADP production was calculated based on ADP concentration calculated from standard curve. […]

Structures are written as SMILES.

T1 sequence (P35968 834-1162 limits assumed): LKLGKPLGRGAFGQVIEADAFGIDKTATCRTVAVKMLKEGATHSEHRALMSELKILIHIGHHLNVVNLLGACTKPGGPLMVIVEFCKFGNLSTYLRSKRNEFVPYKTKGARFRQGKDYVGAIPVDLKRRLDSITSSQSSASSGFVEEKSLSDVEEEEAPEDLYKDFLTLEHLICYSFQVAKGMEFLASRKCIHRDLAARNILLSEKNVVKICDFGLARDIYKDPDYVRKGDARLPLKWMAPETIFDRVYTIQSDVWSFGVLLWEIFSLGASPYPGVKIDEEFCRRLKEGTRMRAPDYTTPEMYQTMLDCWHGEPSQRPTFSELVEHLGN
T2 sequence (Q12809 whole entry): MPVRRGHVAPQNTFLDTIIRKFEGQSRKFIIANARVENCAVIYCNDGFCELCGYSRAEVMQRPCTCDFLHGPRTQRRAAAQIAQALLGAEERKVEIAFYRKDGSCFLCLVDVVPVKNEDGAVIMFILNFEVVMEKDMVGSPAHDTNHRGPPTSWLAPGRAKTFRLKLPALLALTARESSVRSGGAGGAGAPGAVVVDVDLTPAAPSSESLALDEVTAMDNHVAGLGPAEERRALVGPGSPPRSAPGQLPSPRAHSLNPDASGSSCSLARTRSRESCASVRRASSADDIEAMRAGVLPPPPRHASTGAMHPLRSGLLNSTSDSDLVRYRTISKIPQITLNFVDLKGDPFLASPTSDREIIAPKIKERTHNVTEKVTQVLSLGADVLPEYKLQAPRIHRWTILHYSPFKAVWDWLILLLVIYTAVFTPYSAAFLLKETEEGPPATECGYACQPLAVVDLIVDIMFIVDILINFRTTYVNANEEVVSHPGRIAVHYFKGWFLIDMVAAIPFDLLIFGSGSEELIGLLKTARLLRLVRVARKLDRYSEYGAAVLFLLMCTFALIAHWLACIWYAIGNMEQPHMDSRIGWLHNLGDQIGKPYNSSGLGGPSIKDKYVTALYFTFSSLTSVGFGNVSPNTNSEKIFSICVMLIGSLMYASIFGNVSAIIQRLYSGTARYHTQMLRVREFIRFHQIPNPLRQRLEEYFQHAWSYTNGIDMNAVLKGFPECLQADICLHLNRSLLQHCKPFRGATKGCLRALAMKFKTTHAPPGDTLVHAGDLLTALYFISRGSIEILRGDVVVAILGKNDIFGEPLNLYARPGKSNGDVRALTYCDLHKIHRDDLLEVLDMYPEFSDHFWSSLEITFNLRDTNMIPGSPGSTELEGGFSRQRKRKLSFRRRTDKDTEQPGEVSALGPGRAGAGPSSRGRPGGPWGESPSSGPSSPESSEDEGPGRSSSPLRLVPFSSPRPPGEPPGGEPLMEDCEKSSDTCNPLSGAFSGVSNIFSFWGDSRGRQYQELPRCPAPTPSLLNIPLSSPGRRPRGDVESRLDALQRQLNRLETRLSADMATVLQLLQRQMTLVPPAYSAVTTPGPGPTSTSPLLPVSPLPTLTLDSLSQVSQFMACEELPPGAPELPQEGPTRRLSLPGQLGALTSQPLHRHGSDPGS
T3 sequence (P11362 22-822): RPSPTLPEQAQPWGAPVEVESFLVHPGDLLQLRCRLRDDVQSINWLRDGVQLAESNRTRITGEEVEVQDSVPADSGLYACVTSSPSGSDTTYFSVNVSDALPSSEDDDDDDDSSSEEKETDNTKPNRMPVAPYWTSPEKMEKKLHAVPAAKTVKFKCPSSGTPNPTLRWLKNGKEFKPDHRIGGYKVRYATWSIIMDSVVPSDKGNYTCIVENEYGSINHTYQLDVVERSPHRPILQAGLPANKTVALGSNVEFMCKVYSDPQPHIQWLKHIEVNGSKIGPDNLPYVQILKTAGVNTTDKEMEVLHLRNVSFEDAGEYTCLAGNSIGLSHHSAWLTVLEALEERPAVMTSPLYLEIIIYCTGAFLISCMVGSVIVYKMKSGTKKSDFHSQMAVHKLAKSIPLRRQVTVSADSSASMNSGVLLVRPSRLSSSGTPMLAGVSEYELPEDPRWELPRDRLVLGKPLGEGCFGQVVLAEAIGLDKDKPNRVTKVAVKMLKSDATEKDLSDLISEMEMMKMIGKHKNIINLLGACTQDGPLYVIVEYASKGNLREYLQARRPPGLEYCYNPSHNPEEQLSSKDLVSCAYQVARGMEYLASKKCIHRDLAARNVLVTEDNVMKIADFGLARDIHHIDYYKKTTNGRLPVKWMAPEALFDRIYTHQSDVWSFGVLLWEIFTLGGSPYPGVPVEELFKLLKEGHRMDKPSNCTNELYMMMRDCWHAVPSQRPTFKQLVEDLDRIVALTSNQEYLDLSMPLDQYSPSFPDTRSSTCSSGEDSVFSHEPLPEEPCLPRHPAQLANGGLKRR

Turning to `Cc1cc2c(F)c(Nc3ccnc(Nc4cccc(OCCN5CCOCC5)c4)n3)ccc2[nH]1` [compound of Formula C, N^4-(4-fluoro-2-methyl-1H-indol-5-yl)-N^2-(3-(2-morpholinoethoxy)phenyl)pyrimidine-2,4-diamine, reference compound], the IC50 (as a rule, the concentration that gives 50% inhibition) in data set [1] stood at 0.111 µM; in data set [2] it was 0.547 µM.
For `CNS(=O)(=O)Cc1cccc(Nc2nccc(Oc3ccc4[nH]c(C)cc4c3)n2)c1` [Compound B, N-methyl-1-(3-((4-((2-methyl-1H-indol-5-yl)oxy)pyrimidin-2-yl)amino)phenyl)methanesulfonamide, reference compound], in data set [1], the concentration for half-maximal inhibition (IC50) came to 0.038 µM. In addition, in data set [3], the AUC (usually concentration integrated over time) is 26 ng·h/mL and the Cmax (commonly the highest concentration seen after dosing) turned out to be 20 ng/mL.
Turning to `Cc1cc2cc(Oc3ccnc(Nc4cccc(CS(=O)(=O)NCCN(C)C)c4)n3)ccc2[nH]1` [Form I, Form I N-(2-(dimethylamino)ethyl)-1-(3-((4-((2-methyl-1H-indol-5-yl)oxy)pyrimidin-2-yl)amino)phenyl)-methanesulfonamide], the “Stability under the testing humidity conditions” value in data set [4] is “stable”. The “Hygroscopicity (in words)” value in data set [4] (listed as Form I sample) is reported as “non-hygroscopic”. Further, the “Thermodynamic stability, form after slurry” value in data set [5] is “physically and/or thermodynamically more stable than Form II”.
On to `Cc1cc2cc(Oc3ccnc(Nc4cccc(CS(=O)(=O)NCCN(C)C)c4)n3)ccc2[nH]1` [Compound A, N-(2-(dimethylamino)ethyl)-1-(3-((4-((2-methyl-1H-indol-5-yl)oxy)pyrimidin-2-yl)amino)phenyl)-methanesulfonamide], for which the IC50 came out at 0.021 µM in data set [1], 0.053 µM in data set [6] and 6.8 µM in data set [2]. Besides, the AUC in data set [3] was 397 ng·h/mL. The molecule further displayed a Cmax in data set [3] of 138 ng/mL.
`Cc1cc2cc(Oc3ccnc(Nc4cccc(CS(=O)(=O)NCCN(C)C)c4)n3)ccc2[nH]1` [Form II, Form II N-(2-(dimethylamino)ethyl)-1-(3-((4-((2-methyl-1H-indol-5-yl)oxy)pyrimidin-2-yl)amino)phenyl)methanesulfonamide]: in data set [4], the “Stability under the testing humidity conditions” value is recorded as “stable” and the “Hygroscopicity (in words)” value was “slightly hygroscopic”. Also, the “Thermodynamic stability, form after slurry” value in data set [5] is given as “transformed to the Form I”.
